The test system of one assay is MYB mRNA. Description: Splicing RT-qPCR assay, MYB canonical (CJ) and alternative (AJ) junction mRNA. The format is cell-based, human. The conditions noted are these: Homo sapiens, 24 h, A673 or K562 cells, 24 hours compound treatment, RT-qPCR; for AC50: read-out: MYB AJ (AC50, increase in alternative junction mRNA); for IC50: read-out: MYB CJ (IC50, decrease in canonical junction mRNA). The method in brief: (§1)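 Canonical (CJ) and alternative-exon (AJ) junction mRNAs quantified by one-step RT-qPCR in cell lysates, normalized to housekeeping PPIA for A673 and GAPDH or GUSB for K562. Cells were exposed 24 h at 37 °C to 11-point 3-fold compound series from 10 uM final, with DMSO at or below 0.25%.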
(In general: Real-time PCR tracks product formation cycle by cycle.)

In a further assay the test system is HTT mRNA. Description: Splicing RT-qPCR assay, HTT canonical (CJ) and alternative (AJ) junction mRNA. Format: cell-based, human. The conditions noted are these: Homo sapiens, A673 or K562 cells, 24 hours compound treatment; for IC50: 24 h, read-out: HTT CJ (IC50, decrease in canonical junction mRNA); for AC50: read-out: HTT AJ (AC50, increase in alternative junction mRNA). Summed up: as §1

In general, AC50 refers to the midpoint of the concentration-response curve, whichever way the signal moves. For orientation: IC50 means the concentration that inhibits the measured activity by half.

Regarding `CCn1cc2c(N3CCC(NC4C5COCC54)CC3)ccc(C(=O)Nc3cc(F)c4nc(C)cn4c3)c2n1` (stereo not drawn) [Compound 581, 2-ethyl-N-{8-fluoro-2-methylimidazo[1,2-a]pyridin-6-yl}-4-(4-{3-oxabicyclo[3.1.0]hexan-6-ylamino}piperidin-1-yl) indazole-7-carboxamide], the values for the AC50 with MYB mRNA and with HTT mRNA were 100 to 1000 nM and 1000 to 10000 nM, respectively. Also, the IC50 in the assay with MYB mRNA was in the range of 100 to 1000 nM; in the assay on HTT mRNA it was 1000 to 10000 nM.
Take `CCn1cc2c(N3CCNCC3)ccc(C(=O)Nc3cc(F)c4nc(CO)oc4c3)c2n1` [Compound 582, 2-ethyl-N-[4-fluoro-2-(hydroxymethyl)-1,3-benzoxazol-6-yl]-4-(piperazin-1-yl) indazole-7-carboxamide]: the AC50 with MYB mRNA and with HTT mRNA was 100 to 1000 nM throughout. Besides, the IC50 in the assay on MYB mRNA and in the assay with HTT mRNA was 100 to 1000 nM each time.
For `CCn1cc2c(N3C[C@@H](F)[C@H](NC)C3)ccc(C(=O)Nc3cc(F)c4nc(C)cn4c3)c2n1` [Compound 584, 2-ethyl-N-{8-fluoro-2-methylimidazo[1,2-a]pyridin-6-yl}-4-[(3R,4R)-3-fluoro-4-(methylamino)pyrrolidin-1-yl]indazole-7-carboxamide], in the assay on MYB mRNA, the AC50 lay in the range of 100 to 1000 nM and the IC50 lay within 100 to 1000 nM. Further, in the assay on HTT mRNA, the IC50 is 1000 to 10000 nM and the AC50 is 1000 to 10000 nM.
Regarding `CCn1cc2c(N3C[C@H](F)[C@H](NC)C3)ccc(C(=O)Nc3cc(F)c4nc(C)cn4c3)c2n1` [Compound 585, cis-2-ethyl-N-(8-fluoro-2-methylimidazo[1,2-a]pyridin-6-yl)-4-((3S,4R)-3-fluoro-4-(methylamino)pyrrolidin-1-yl)-2H-indazole-7-carboxamide bis(2,2,2-trifluoroacetate)], in the assay on MYB mRNA, the AC50 lay in the range of 100 to 1000 nM and the IC50 lay within 100 to 1000 nM. Further, in the assay on HTT mRNA, the IC50 is more than 10000 nM and the AC50 was more than 10000 nM.
For `Cc1cn2cc(NC(=O)c3c(F)cc(N4CC[C@@H](NC5(C#N)CC5)C4)c4cn(C)nc34)cc(F)c2n1` [Compound 587, 4-[(3R)-3-[(1-cyanocyclopropyl)amino]pyrrolidin-1-yl]-6-fluoro-N-{8-fluoro-2-methylimidazo[1,2-a]pyridin-6-yl}-2-methylindazole-7-carboxamide], in the assay with MYB mRNA, the AC50 lay within 100 to 1000 nM and the IC50 is 100 to 1000 nM. In addition, in the assay with HTT mRNA, the IC50 lay within 100 to 1000 nM and the half-maximal activity concentration (AC50) was in the range of 100 to 1000 nM.
As for `Cc1cn2cc(NC(=O)c3ccc(N4CCN[C@@H](C(C)C)C4)c4cn(C)nc34)cc(F)c2n1` [Compound 589, N-{8-fluoro-2-methylimidazo[1,2-a]pyridin-6-yl}-4-[(3S)-3-isopropylpiperazin-1-yl]-2-methylindazole-7-carboxamide], in the assay with MYB mRNA, the AC50 is 1000 to 10000 nM and the IC50 is 100 to 1000 nM. Further, in the assay on HTT mRNA, the IC50 was more than 10000 nM and the AC50 is more than 10000 nM.
As to `CCn1cc2c(N3CCC(NC4(CO)CC4)CC3)ccc(C(=O)Nc3cc(F)c4nc(C)cn4c3)c2n1` [Compound 590], in the assay with MYB mRNA, the AC50 fell in the range of 100 to 1000 nM and the IC50 was 100 to 1000 nM. In addition, in the assay on HTT mRNA, the IC50 fell in the range of 1000 to 10000 nM and the AC50 lay in the range of 1000 to 10000 nM.
For `CCn1cc2c(N3C[C@H](C)N[C@@H](C)C3)ccc(C(=O)Nc3cc(F)c4nc(C)cn4c3)c2n1` [Compound 592], in the assay with MYB mRNA, the AC50 lay in the range of 100 to 1000 nM and the IC50 lay within 100 to 1000 nM. Besides, in the assay on HTT mRNA, the IC50 was 1000 to 10000 nM and the AC50 was more than 10000 nM.
On to `Cc1cn2cc(NC(=O)c3ccc(N4CC[C@@H](NCc5ncccn5)C4)c4cn(C)nc34)cc(F)c2n1` [Compound 594, N-{8-fluoro-2-methylimidazo[1,2-a]pyridin-6-yl}-2-methyl-4-[(3R)-3-[(pyrimidin-2-ylmethyl)amino]pyrrolidin-1-yl]indazole-7-carboxamide], for which the AC50 in the assay on MYB mRNA was 1000 to 10000 nM; in the assay on HTT mRNA, more than 10000 nM. Besides, the figures for the IC50 in the assay on MYB mRNA and in the assay with HTT mRNA were 100 to 1000 nM and more than 10000 nM, respectively.
For `Cc1cn2cc(NC(=O)c3ccc(N4CC[C@@H](NC5(C#N)CC5)C4)c4cn(C)nc34)cc(F)c2n1` [Compound 596, 4-[(3R)-3-[(1-cyanocyclopropyl)amino]pyrrolidin-1-yl]-N-{8-fluoro-2-methylimidazo[1,2-a]pyridin-6-yl}-2-methylindazole-7-carboxamide], in the assay on MYB mRNA, the AC50 fell in the range of 1000 to 10000 nM and the IC50 is 1000 to 10000 nM. Moreover, in the assay with HTT mRNA, the IC50 is more than 10000 nM and the AC50 was more than 10000 nM.
For `Cc1cn2cc(NC(=O)c3ccc(N4CC[C@@H](NC5(C)CC5)C4)c4cn(C)nc34)cc(F)c2n1` [Compound 598], in the assay on MYB mRNA, the AC50 fell in the range of 100 to 1000 nM and the IC50 is less than 100 nM. In addition, in the assay with HTT mRNA, the IC50 lay in the range of 1000 to 10000 nM and the AC50 lay in the range of 1000 to 10000 nM.
With `CCn1cc2c(N3C[C@@H](C)N[C@@H](C(C)C)C3)ccc(C(=O)Nc3cc(F)c4nc(C)cn4c3)c2n1` [Compound 600, 2-ethyl-N-{8-fluoro-2-methylimidazo[1,2-a]pyridin-6-yl}-4-[(3S,5R)-3-isopropyl-5-methylpiperazin-1-yl] indazole-7-carboxamide], in the assay on MYB mRNA, the AC50 lay in the range of 1000 to 10000 nM and the IC50 lay within 1000 to 10000 nM. In the assay on HTT mRNA, the IC50 is more than 10000 nM and the concentration at half-maximal activity (AC50) was more than 10000 nM.
As to `Cc1cn2cc(NC(=O)c3ccc(N4CC[C@@H](NC5CC(O)C5)C4)c4cn(C)nc34)cc(F)c2n1` (stereo partly drawn) [Compound 602], in the assay with MYB mRNA, the half-maximal activity concentration (AC50) was in the range of 100 to 1000 nM and the IC50 was less than 100 nM. In the assay with HTT mRNA, the IC50 lay within 1000 to 10000 nM and the AC50 is 1000 to 10000 nM.
Consider `Cc1cn2cc(NC(=O)c3ccc(N4CC[C@H](NC5CC(O)C5)C4)c4cn(C)nc34)cc(F)c2n1` (stereo partly drawn) [Compound 603], for which, in the assay on MYB mRNA, the AC50 was more than 10000 nM and the IC50 lay in the range of 1000 to 10000 nM. In the assay with HTT mRNA, the IC50 was more than 10000 nM and the AC50 was more than 10000 nM.
As to `CCn1cc2c(N3CCNCC3)ccc(C(=O)Nc3cn4cc(C)nc4c(Cl)n3)c2n1` [Compound 604, N-{8-chloro-2-methylimidazo[1,2-a]pyrazin-6-yl}-2-ethyl-4-(piperazin-1-yl) indazole-7-carboxamide], in the assay on MYB mRNA, the AC50 was 1000 to 10000 nM and the IC50 was 1000 to 10000 nM. Moreover, in the assay on HTT mRNA, the IC50 is more than 10000 nM and the half-maximal activity concentration (AC50) is more than 10000 nM.
For the compound `Cc1cn2cc(NC(=O)c3ccc(N4CCN[C@@H](C5CC5)C4)c4cn(C)nc34)cc(F)c2n1` [Compound 606, 4-[(3S)-3-cyclopropylpiperazin-1-yl]-N-{8-fluoro-2-methylimidazo[1,2-a]pyridin-6-yl}-2-methylindazole-7-carboxamide], in the assay on MYB mRNA, the half-maximal activity concentration (AC50) fell in the range of 100 to 1000 nM and the IC50 is 100 to 1000 nM. Moreover, in the assay with HTT mRNA, the IC50 lay within 100 to 1000 nM and the AC50 fell in the range of 1000 to 10000 nM.
`Cc1cn2cc(NC(=O)c3ccc(N4CCN[C@H](C5CC5)C4)c4cn(C)nc34)cc(F)c2n1` [Compound 607, 4-[(3R)-3-cyclopropylpiperazin-1-yl]-N-{8-fluoro-2-methylimidazo[1,2-a]pyridin-6-yl}-2-methylindazole-7-carboxamide]: the AC50 in the assay on MYB mRNA is 100 to 1000 nM; in the assay with HTT mRNA, 1000 to 10000 nM. The values for the IC50 with MYB mRNA and in the assay with HTT mRNA were 100 to 1000 nM and 1000 to 10000 nM, respectively.
Consider `CN[C@@H]1CCN(c2ccc(C(=O)Nc3cn4cc(C)nc4c(Oc4ccccc4)n3)c3nn(C)cc23)C1` [Compound 610, 2-methyl-N-{2-methyl-8-phenoxyimidazo[1,2-a]pyrazin-6-yl}-4-[(3R)-3-(methylamino)pyrrolidin-1-yl]indazole-7-carboxamide], for which the AC50 with MYB mRNA was 100 to 1000 nM; with HTT mRNA, 1000 to 10000 nM. Further, the concentration for half-maximal inhibition (IC50) is 100 to 1000 nM in the assay on MYB mRNA and more than 10000 nM in the assay with HTT mRNA.

Values taken from US20250154169A1, “COMPOUNDS AND METHODS FOR MODULATING SPLICING” (REMIX THERAPEUTICS INC., priority 2021, published 2025).
